{
  "source": "paper PMC11203919",
  "about": "“Heat Stress and Microbial Stress Induced Defensive Phenol Accumulation in Medicinal Plant Sparganium stoloniferum” (International Journal of Molecular Sciences, 2024)",
  "molecular_target": "T1, SsC4H (Sparganium stoloniferum, UniProt A0AAU8GF87)",
  "T1 construct": "gene C4H; pYeDP60 in yeast WAT11 culture, not purified",
  "T1 sequence (A0AAU8GF87 entry or part of it)": "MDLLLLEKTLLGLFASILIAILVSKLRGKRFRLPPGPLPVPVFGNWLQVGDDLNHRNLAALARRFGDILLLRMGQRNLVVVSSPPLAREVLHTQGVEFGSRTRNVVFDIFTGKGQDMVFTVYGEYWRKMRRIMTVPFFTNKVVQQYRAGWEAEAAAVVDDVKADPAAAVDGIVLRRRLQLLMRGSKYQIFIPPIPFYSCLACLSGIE",
  "assay": "substrate feeding of yeast culture, LC-MS/MS of p-coumaric acid",
  "assay_type": "cell-based",
  "details": "0.5 mM substrate, 16 °C, 12 h; yeast WAT11",
  "data": [
    {"smiles": "O=C(O)/C=C/c1ccccc1", "note": "[trans-cinnamic acid]", "values": [
      {"measurement": "substrate feeding of yeast culture, LC-MS/MS of p-coumaric acid", "value": "Upon adding trans-cinnamic acid to the SsC4H-pYeDP60-WAT11 culture, hydroxylation occurred to produce p-coumaric acid"}
    ]}
  ]
}
